Assay results as given in patent US20120065179A1, “PRODRUG COMPRISING BETA-KETO CARBOXYLIC ACID, BETA-KETO CARBOXYLIC ACID SALT OR BETA-KETO CARBOXYLIC ACID ESTER FOR DRUG DELIVERY” (YKI, Ytemiska Institutet AB, priority 2009, published 2012).
≈ marks a conversion by molar mass, not a printed value. Where “and” joins values, the source holds several entries; their conditions need not be identical. Equal values may be shown once.

Legend:
[1] = at 37° C.; Okimotoa et al., 1999; cited from earlier work
[2] = Aqueous solubility of sodium beta-keto salt prodrug of Nabumetone (Example 13b); assay type: physicochemical
Procedure: 12.1 mg of the of ethyl-5-(6-methoxy-2-naphthyl)-beta-keto-pentanoate product prepared and purified as in Example 8 was mixed with 25 mL of a 0.5 M aqueous solution NaOH and homogenised on a vortex mixer. […] 15 minutes after preparation of the sample, the sample was transferred to an oil bath set at 37° C. with continuous gentle magnetic stirring, and kept there for 3.5 hours. Crystalline flakes remained in the sample at the end of the 3.5 hours heat-treatment, and the sample was thereafter centrifuged and the clear liquid above the sedimented crystals was analysed by HPLC as described above.
After storage around one hour at room temperature a fraction of the sample was then filtered twice through a 0.2 μm filter (Whatman, 0.2 μm PS) fitted to a syringe to give a clear solution. 200 μL of this filtered solution was transferred, in a tightly closed vessel, to an oil bath at 95° C. and kept at this temperature for about 5 hours to bring about quantitative decarboxylation of the labile, dissolved beta-keto carboxylic salt prodrug derivative of Nabumetone.
The heated sample was then mixed with 35 mL of mobile phase (see Example 1) whereby a few solid crystals (comprising Nabumetone) was seen to not dissolve. In order to assure a correct sampling for HPLC analysis, 5 mL of the 35 mL sample was filtered through a 0.2 μm filter, after the whole 35 mL sample had been pH adjusted to 4.21 by 300 μL 0.1 M HCl+100 μL 1 M HCl, to assure that the pH of the sample was close to the pH of the mobile phase itself (pH 4.30). The filtered solution was thereafter analysed by HPLC and found to contain 0.777 mg Nabumetone per liter. If recalculated to the corresponding concentration of nabumetone equivalents in the form of the beta-keto salt prodrug present in dissolved form in the filtered 200 μl sample that was subsequently heat-treated to form Nabumetone above, the obtained concentration corresponds to a Nabumetone concentration of 136.7 mg Nabumetone per liter in the clear aqueous solution, at room temperature, before the heat-treatment at 95° C.

[3] = Sustained release of Nabumetone from beta-keto sodium salt prodrug in phosphate buffer at blood pH and 37° C.; assay type: physicochemical; details: phosphate buffer pH about 7.4, 37° C.
Procedure: 20.91 mg of the product synthesised as described in Example 8 (however in this case not purified by the chromatographic step in Example 8) was mixed with 1 ml 0.5 M NaOH at room temperature, whereby a portion of the sample was dissolved. After 30 minutes the mixture was placed in an oven at 37° C., and 10 μl samples was taken at regular intervals, diluted with 1 ml mobile phase (as in Example 1), and analyzed by HPLC, using UV-detection at 240 nm. 3.0 hours after initiation of the saponification reaction, the precursor (retention time 4.6 min) could no longer be detected, and the precursor peak was replaced by a peak from the intermediary beta-keto salt prodrug (retention time 2.3 minutes). At this point in time, a solution of 9 ml H2O and 0.0762 g NaH2PO4 was added to the sample, in order to create a NaH2PO4/Na2HPO4 pH buffer by neutralization of the NaOH remaining in the sample. […] The sample was again placed in the oven at 37° C. and the decarboxylation of the beta-keto salt in solution, gradually giving the commercially available drug Nabumetone, was followed by HPLC by taking 100 μl samples at regular intervals and diluting them with 1 ml mobile phase (see Example 1 above) before injection on the HPLC. It can be seen from the data that Nabumetone was continuously released into the solution via the spontaneous, non-enzymatic decarboxylation of the dissolved prodrug sodium salt, over a period of more than 120 hours. The half-life of the prodrug was estimated to be about 70 hours in this medium and under the conditions used.

| Molecule | Solubility [1] [µg/mL] | Solubility (mg/L, as Nabumetone equivalents) ([2]; clear aqueous solution (0.5 M NaOH) at room temperature, 0.2 μm filtered, before heat-treatment) [mg/L] | Area at retention time 2.3 minutes characteristic for detection of the beta-keto anion ([2]; clear liquid after 3.5 h at 37° C. in 0.5 M NaOH, 200 μL diluted with 5.0 ml mobile phase) [arbitrary units] | half-life of the prodrug (estimated) [3] | period over which Nabumetone was continuously released into the solution [3] | Nabumetone beta-keto salt prodrug (HPLC area @ retention time 2.3 min) ([3]; 3.25 h after initiation of saponification) | Nabumetone beta-keto salt prodrug (HPLC area @ retention time 2.3 min) ([3]; 5.1 h after initiation of saponification) | Nabumetone beta-keto salt prodrug (HPLC area @ retention time 2.3 min) ([3]; 21.45 h after initiation of saponification) | Nabumetone beta-keto salt prodrug (HPLC area @ retention time 2.3 min) ([3]; 24.25 h after initiation of saponification) | Nabumetone beta-keto salt prodrug (HPLC area @ retention time 2.3 min) ([3]; 28.15 h after initiation of saponification) | Nabumetone beta-keto salt prodrug (HPLC area @ retention time 2.3 min) ([3]; 45.4 h after initiation of saponification) | Nabumetone beta-keto salt prodrug (HPLC area @ retention time 2.3 min) ([3]; 50 h after initiation of saponification) | Nabumetone beta-keto salt prodrug (HPLC area @ retention time 2.3 min) ([3]; 78 h after initiation of saponification) | Nabumetone beta-keto salt prodrug (HPLC area @ retention time 2.3 min) ([3]; 117 h after initiation of saponification) | Nabumetone beta-keto salt prodrug (HPLC area @ retention time 2.3 min) ([3]; 194 h after initiation of saponification) |
| --- | --- | --- | --- | --- | --- | --- | --- | --- | --- | --- | --- | --- | --- | --- | --- |
| C[C@]12CC[C@H]3[C@@H](CCC4=CC(=O)CC[C@@]43C)[C@@H]1CC[C@@H]2O [testosterone, (8R,9S,10R,13S,14S,17S)-17-hydroxy-10,13-dimethyl-1,2,6,7,8,9,11,12,14,15,16,17-dodecahydrocyclopenta[a]phenanthren-3-one] | 39 (≈ 135 µM) | – | – | – | – | – | – | – | – | – | – | – | – | – | – |
| 5-(6-methoxy-2-naphthyl)-beta-keto-pentanoate [Nabumetone beta-keto salt prodrug] | – | 136.7 | 36218 | about 70 hours | more than 120 hours | 28341 | 27144 | 22542 | 24102 and 21914 | 19536 | 18202 | 18123 | 9528 | 9760 | 1827 |
